Results taken from US20170145002A1, “DEUTERATED ISOXAZOLE DERIVATIVES AND THEIR USE AS METABOTROPIC GLUTAMATE RECEPTOR POTENTIATORS” (AstraZeneca AB, priority 2015, published 2017).

Experiments:
[1] = Metabolic stability and intrinsic clearance in dog hepatocytes; format: in vitro ADME; conditions: cryopreserved dog hepatocytes 1.0×10^6 viable cells/mL, 37° C., up to 120 minutes; read-out: Dog Hepatocytes Median t1/2
Experimental: Stock solutions (10 mM) of the test compounds and control compounds were prepared in appropriate solvent (DMSO). The incubation medium (L-15 Medium) was placed in a 37° C. water bath, and warming was allowed for at least 15 minutes prior to use. 80 μL of acetonitrile was added to each well of the 96-well deep well plate (quenching plate). In a new 96-well plate, the 10 mM test compound solutions and the control compound solution were diluted to 100 μM by combining 198 μL of acetonitrile and 2 μL of 10 mM stock. A vial of cryopreserved dog hepatocytes was removed from storage, while ensuring that vials remain at cryogenic temperatures until thawing process ensued. As quickly as possible, the cells were thawed by placing the vial in a 37° C. water bath and gently shaking the vials. Vials remained in water bath until all ice crystals had dissolved and were no longer visible. After thawing was complete, vial was sprayed with 70% ethanol, and transferred to a biosafety cabinet. The vial was opened and the contents poured into the 50 mL conical tube containing thawing medium. The 50 mL conical tube was placed into a centrifuge and spun at 100 g for 10 minutes. Upon completion of spin, the thawing medium was aspirated and hepatocytes resuspended in enough incubation medium to yield ˜1.5×10^6 cells/mL. Using Cellometer® Vision, cells were counted and the viable cell density was determined. Cells with poor viability (<80% viability) were not acceptable for use. Cells were diluted with incubation medium to a working cell density of 1.0×10^6 viable cells/mL. 247.5 μL of hepatocytes were transferred into each well of a 96-well cell culture plate. The plate was placed on Eppendorf Thermomixer Comfort plate shaker to allow the hepatocytes to warm for 10 minutes. 2.5 μL of 100 μM test compound solution or control compound solution were added into an incubation well containing cells, and mixed to achieve a homogenous suspension at 0.5 minutes, which when achieved, defined the 0.5 minute time point. At the 0.5 minute time point, 20 μL of incubated mixture was transferred to wells in a “Quenching” plate followed by vortexing. The plate was incubated at 37 ° C. at 900 rpm on an Eppendorf Thermomixer Comfort plate shaker. At 5, 15, 30, 45, 60, 80, 100 minutes and 120 minutes, the incubation system was mixed and samples of 20 μL of incubated mixture were serially transferred at each time point to wells in a separate “Quenching” plate followed by vortexing. The quenching plates were centrifuged for 20 minutes at 4,000 rpm. […]
All calculations were carried out using Microsoft Excel. Peak areas were determined from extracted ion chromatograms. […]
The in vitro intrinsic clearance (in vitro Clint, in μL/min/10^6 cells) is determined from the slope value using the following equation: […]

CYP3A4 = CYP3A4 (Homo sapiens, UniProt P08684); experiment: CYP isoform phenotyping; format: in vitro ADME; conditions: for CYP 3A4 (% contribution): recombinant human CYP isozymes, parent disappearance; for Contribution of CYP3A4 to metabolism (in words): assay conditions of Example 8
Chain of CYP3A4 (P08684 whole entry, canonical isoform): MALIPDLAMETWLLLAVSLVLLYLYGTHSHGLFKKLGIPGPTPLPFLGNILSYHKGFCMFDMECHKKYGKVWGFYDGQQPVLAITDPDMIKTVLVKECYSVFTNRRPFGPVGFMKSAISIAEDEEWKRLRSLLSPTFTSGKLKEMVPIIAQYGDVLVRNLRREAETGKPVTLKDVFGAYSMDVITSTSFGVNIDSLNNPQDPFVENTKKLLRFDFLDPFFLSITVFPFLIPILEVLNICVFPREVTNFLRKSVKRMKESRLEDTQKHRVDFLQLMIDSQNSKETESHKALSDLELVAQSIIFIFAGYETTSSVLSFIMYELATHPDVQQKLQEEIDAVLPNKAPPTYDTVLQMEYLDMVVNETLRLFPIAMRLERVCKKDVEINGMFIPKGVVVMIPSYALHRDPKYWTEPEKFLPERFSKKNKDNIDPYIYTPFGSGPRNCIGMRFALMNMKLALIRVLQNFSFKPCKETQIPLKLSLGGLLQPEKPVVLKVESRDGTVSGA
Experimental: This assay was used to determine whether Compounds A, B, C and D are metabolised by CYP enzymes.
Solutions (200 μmol/L) of each Compound A, B, C and D as well as of positive controls (phenacetin for CYP1A2, coumarin for CYP2A6, bupropion for CYP2B6, amitriptyline for CYP2C8, 2C19, 2D6 and 3A4, diclofenac for CYP2C9, chlorzoxazone for CYP2E1, midazolam for CYP3A5) were prepared by adding 4 μL of a 10 mmol/L stock solution in DMSO to 196 μL of acetonitrile. The recombinant human CYP isozymes were thawed on wet ice (over an hour). Mixtures (2670 μL) of CYP isozymes in phosphate buffer containing 112.36 nmol/L CYP1A2, 2A6, 2B6, 2C8, 2C9, 2C19, 2D6, 2E1, 3A4 or 3A5 were prepared. The CYP isozyme mixture (222.5 [EL), 25 μL of 10 mmol/L of NADPH solution and 2.5 μL of vehicle control (2: 98 DMSO/acetonitrile) were added to the blank control plate. The resulting mixture was mixed on a whirly mixer for 10 seconds before a stop solution (1000 μL) with internal standard containing 200 nmol/L of 5,5-diethyl-1,3-diphenyl-2-iminobarbituric acid and 100 nmol/L of tolbutamide was added. The blank control plate was sealed with a lid and mixed on whirly mixer for 120 seconds, and kept on ice prior to centrifugation.
The standard samples containing 200 pmol/mL hydroxybupropion and 40 pmol/mL 6-hydroxychlorzoxazone were obtained as follows: the CYP isozyme mixture (222.5 μL) and 25 μL of 10 mmol/L NADPH solution were added to separate wells of the blank control plate. 2.5 μL of a 20 nmol/mL hydroxybupropion solution was added to one well and 2.5 μL of a 4 nmol/mL 6-hydroxychlorzoxazone solution was added to the other well. Mixing was conducted on a whirly mixer for 10 seconds. The stop solution with internal standard (1000 μL) was added to both wells. The blank control plate was sealed with a lid and mixing was conducted on a whirly mixer for 120 seconds. The blank control plate was kept on ice prior to centrifugation.
The CYP isozyme mixtures (222.5 μL) and Compounds A, B, C, D and the positive controls (2.5 μL of each 200 μmol/L solution) were added to the incubation plates. Mixing on a whirly mixer was conducted for 10 seconds. The incubation plate was pre-warmed at 37° C. for 15 minutes. The CYP/compound mixture (27 μL) was transferred from the incubation plate to the 0 minute “Quenching plates” containing 120 μL of the stop solution and 3 μL of a 10 mmol/L NADPH solution. The 0 minute “Quenching plates” was sealed with a lid and kept on ice. Mixing of the 0 minute “Quenching plates” on a whirly mixer was conducted for 120 seconds. The reaction was initiated with the addition of 22 μL of a 10 mmol/L of NADPH solution to the incubation plate. Mixing of the incubation mixture on a whirly mixer was conducted for 10 seconds. The incubation was carried out at 37° C. At 5, 10, 15 and 25 minutes, the incubation mixture was mixed on a whirly mixer for 10 seconds and samples of the incubated mixture (30 μL) were transferred at each time point to wells in a separate “Quenching plate” containing 120 μL of the stop solution, which was sealed with a lid and kept on ice. Mixing on a whirly mixer was conducted for 120 seconds. […]
All calculations are carried out using Microsoft Excel. Peak areas were determined from extracted ion chromatograms. The percentage of parent remaining was calculated from peak area of Compounds A, B, C, D and positive controls. […]

SMILES	half-life at 1 μM [1] [min]	CYP 3A4 (% contribution) (CYP3A4) [%]	Contribution of CYP3A4 to metabolism (in words) (CYP3A4)
[2H]C1([2H])COCC([2H])([2H])N1C(=O)c1cc(-c2cc(Cl)c3c(c2)CN([C@@H](C)C2CC2)C3=O)on1 [Compound C, (S)-7-chloro-2-(1-cyclopropylethyl)-5-(3-(morpholine-4-carbonyl-3,3,5,5-d4)isoxazol-5-yl)isoindolin-1-one]	33.3	99.7	
[2H]C1([2H])CN(C(=O)c2cc(-c3cc(Cl)c4c(c3)CN([C@@H](C)C3CC3)C4=O)on2)CC([2H])([2H])O1 [Compound B, (S)-7-chloro-2-(1-cyclopropylethyl)-5-(3-(morpholine-4-carbonyl-2,2,6,6-d4)isoxazol-5-yl)isoindolin-1-one]	40.1	82.3	
[2H]C1([2H])OC([2H])([2H])C([2H])([2H])N(C(=O)c2cc(-c3cc(Cl)c4c(c3)CN([C@@H](C)C3CC3)C4=O)on2)C1([2H])[2H] [Compound A, (S)-7-chloro-2-(1-cyclopropylethyl)-5-(3-(morpholine-4-carbonyl-2,2,3,3,5,5,6,6-d8)isoxazol-5-yl)isoindolin-1-one]	40.1		no measureable contribution
C[C@@H](C1CC1)N1Cc2cc(-c3cc(C(=O)N4CCOCC4)no3)cc(Cl)c2C1=O [Compound D, (S)-7-chloro-2-(1-cyclopropylethyl)-5-(3-(morpholine-4-carbonyl)isoxazol-5-yl)isoindolin-1-one, reference compound]	29.9	100	metabolized predominately by CYP3A4
